Data published in patent US7511065B2, “Mixed lineage kinase modulators” (Eli Lilly and Company, priority 2002, dated 2009).

The molecules below were run against T1, MLK-7 (Homo sapiens, UniProt Q9NYL2) (assay: In vitro assay of purified MLK-7 kinase activity (33P transfer from ATP to myelin basic protein)). Conditions: recombinant GST-tagged MLK-7 at 1 nm, 30 uM ATP, 5 uM MBP substrate, 2 hours room temperature; read-out: MLK7 IC50.
T1 construct: GST; His tag; made in house; host or cells: Sf9 insect cells (baculovirus, pVL1392)
Type: biochemical
Text: In Vitro Assay of Purified Mixed Lineage Kinase 7 (MLK-7) Activity:
Briefly, recombinant glutathione-s-transferase (GST) tagged MLK-7 is expressed in Sf9 cells using a recombinant baculovirus created using baculovirus transfer vector pVL1392 modified to contain a GST and histidine tag. The recombinant protein is purified over a glutathione column and subsequently used for in vitro kinase assays with myelin basic protein (MBP) as the substrate for phosphorylation. The in vitro kinase reaction is run with recombinant MLK-7 at 1 nm and various concentrations of test compound in a reaction mixture containing 2 mM DTT, 30 uM ATP, 5 mM MgCl2, 5 uM MBP, 4% DMSO, 5 uCi 33P in 44 mM HEPES, (pH 7.4). The reaction is carried out for 2 hours at room temperature and then stopped by the addition of phosphoric acid to 5.5%. The phosphorylated MBP is collected on a filter and radioactivity associated with the membrane measured using a scintillation counter. Inhibitors are identified by the ability to reduce the transfer of radioactive phosphate from ATP to MBP compared to controls run without test compound.
IC50 values, defined as the concentration of test compound required to decrease the transfer of radioactive phosphate from ATP to MBP by 50%, are then determined. Ki values (which refers to the dissociation constant of an enzyme-antagonist complex and serves as an index of ligand binding) for each respective test compound can also be calculated by application of the Cheng-Prusoff equation as described in Cheng et al., Relationship Between The Inhibition Constant (Ki) and The Concentration of Inhibitor Which Causes 50% Inhibition (IC50) of an Enzymatic Reaction, Biochem. Pharmacol., 22: […]; (1973).
Representative compounds of the present invention have an IC50 in the MLK-7 kinase assay of ≦10,000 nM Table I (see infra.) provides IC50 data from the afore mentioned MLK-7 kinase assay for a representative sample of the exemplified compounds of the present invention.

T1 sequence (Q9NYL2 1-455 isoform Q9NYL2-2): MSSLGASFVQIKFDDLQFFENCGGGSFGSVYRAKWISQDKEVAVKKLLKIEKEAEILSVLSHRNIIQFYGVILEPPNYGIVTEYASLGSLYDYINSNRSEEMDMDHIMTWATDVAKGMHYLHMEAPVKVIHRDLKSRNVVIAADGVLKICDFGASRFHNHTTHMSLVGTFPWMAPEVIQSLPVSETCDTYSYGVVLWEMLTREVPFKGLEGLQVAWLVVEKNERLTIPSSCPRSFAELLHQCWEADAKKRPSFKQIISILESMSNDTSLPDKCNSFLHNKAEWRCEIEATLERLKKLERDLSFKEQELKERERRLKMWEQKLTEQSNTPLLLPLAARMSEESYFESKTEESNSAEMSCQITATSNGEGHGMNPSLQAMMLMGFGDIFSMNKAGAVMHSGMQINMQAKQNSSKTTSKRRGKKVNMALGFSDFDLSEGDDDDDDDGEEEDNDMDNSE

`Cc1cccc(-c2nn3c(c2-c2ccnc4cc(-c5ccc(CCC(=O)O)cc5)ccc24)CCC3)n1` [Example 58, 3-(4-{4-[2-(6-Methyl-pyridin-2-yl)-5,6-dihydro-4H-pyrrolo[1,2-b]pyrazol-3-yl]-quinolin-7-yl}-phenyl)-propionic acid] and `Cc1cccc(-c2nn3c(c2-c2ccnc4cc(-c5ccc(F)cc5)ccc24)CCC3)n1` [Example 59, 7-(4-Fluoro-phenyl)-4-[2-(6-methyl-pyridin-2-yl)-5,6-dihydro-4H-pyrrolo[1,2-b]pyrazol-3-yl]-quinoline] cannot be ordered by IC50: at most 100 nM for the first, at most 100 nM for the second.

`COc1ccc(-c2ccc3c(-c4c(-c5cccc(C)n5)nn5c4CCC5)ccnc3c2)cc1` [Example 60, 7-(4-Methoxy-phenyl)-4-[2-(6-methyl-pyridin-2-yl)-5,6-dihydro-4H-pyrrolo[1,2-b]pyrazol-3-yl]-quinoline] and `Cc1cccc(-c2nn3c(c2-c2ccnc4cc(-c5ccc(Cl)cc5)ccc24)CCC3)n1` [Example 64, 7-(4-Chloro-phenyl)-4-[2-(6-methyl-pyridin-2-yl)-5,6-dihydro-4H-pyrrolo[1,2-b]pyrazol-3-yl]-quinoline] cannot be ordered by IC50: at most 100 nM for the first, at most 1000 nM for the second.

`Cc1cccc(-c2nn3c(c2-c2ccnc4cc(-c5ccccc5)ccc24)CCC3)n1` [Example 61, 7-Phenyl-4-[2-(6-methyl-pyridin-2-yl)-5,6-dihydro-4H-pyrrolo[1,2-b]pyrazol-3-yl]-quinoline Trifluoroacetic Acid] and `Cc1cccc(-c2nn3c(c2-c2ccnc4cc(-c5cccc([N+](=O)[O-])c5)ccc24)CCC3)n1` [Example 63, 4-[2-(6-Methyl-pyridin-2-yl)-5,6-dihydro-4H-pyrrolo[1,2-b]pyrazol-3-yl]-7-(3-nitro-phenyl)quinoline] cannot be ordered by IC50: at most 100 nM for the first, at most 100 nM for the second.

`Cc1cccc(-c2nn3c(c2-c2ccnc4cc(-c5cccs5)ccc24)CCC3)n1` [Example 62, 4-[2-(6-Methyl-pyridin-2-yl)-5,6-dihydro-4H-pyrrolo[1,2-b]pyrazol-3-yl]-7-thiophen-2-yl-quinoline Trifluoroacetic Acid] and `c1ccc(-c2nn3c(c2-c2ccnc4cc(-c5nccs5)ccc24)CCC3)nc1` [Example 66, 4-(2-Pyridin-2-yl-5,6-dihydro-4H-pyrrolo[1,2-b]pyrazol-3-yl)-7-thiazol-2-yl-quinoline Trifluoroacetic Acid] cannot be ordered by IC50: at most 100 nM for the first, at most 100 nM for the second.

`c1ccc(-c2nn3c(c2-c2ccnc4cc(-c5ccco5)ccc24)CCC3)nc1` [Example 65, 7-Furan-2-yl-4-(2-Pyridin-2-yl-5,6-dihydro-4H-pyrrolo[1,2-b]pyrazol-3-yl)quinoline Trifluoroacetic Acid] and `c1ccc(-c2nn3c(c2-c2ccnc4cc(-c5ccc[nH]5)ccc24)CCC3)nc1` [Example 69, 4-(2-pyridin-2-yl-5,6-dihydro-4H-pyrrolo[1,2-b]pyrazol-3-yl)-7-(1H-pyrrol-2-yl)quinoline Ditrifluoroacetic Acid] cannot be ordered by IC50: at most 100 nM for the first, at most 100 nM for the second.

`c1ccc(-c2nn3c(c2-c2ccnc4cc(-c5cnccn5)ccc24)CCC3)nc1` [Example 67, 7-Pyrazin-2-yl-4-(2-Pyridin-2-yl-5,6-dihydro-4H-pyrrolo[1,2-b]pyrazol-3-yl)quinoline Ditrifluoroacetic Acid] and `c1ccc(-c2ccc3c(-c4c(-c5ccccn5)nn5c4CCC5)ccnc3c2)nc1` [Example 68, 7-Pyridin-2-yl-4-(2-Pyridin-2-yl-5,6-dihydro-4H-pyrrolo[1,2-b]pyrazol-3-yl)quinoline Ditrifluoroacetic Acid] cannot be ordered by IC50: at most 1000 nM for the first, at most 100 nM for the second.

`c1ccc(-c2nn3c(c2-c2ccnc4cc(-c5cc6ccccc6[nH]5)ccc24)CCC3)nc1` [Example 70, 7-(1H-Indol-2-yl)-4-(2-pyridin-2-yl-5,6-dihydro-4H-pyrrolo[1,2-b]pyrazol-3-yl)quinoline Ditrifluoroacetic Acid] and `Nc1ccc(-c2ccc3c(-c4c(-c5ccccn5)nn5c4CCC5)ccnc3c2)cc1F` [Example 78, 2-Fluoro-4-[4-(2-pyridin-2-yl-5,6-dihydro-4H-pyrrolo[1,2-b]pyrazol-3-yl)quinolin-7-yl]phenylamine Ditrifluoroacetic Acid] cannot be ordered by IC50: at most 100 nM for the first, at most 100 nM for the second.

`c1ccc(-c2nn3c(c2-c2ccnc4cc(-c5cc[nH]c5)ccc24)CCC3)nc1` [Example 71, 4-(2-pyridin-2-yl-5,6-dihydro-4H-pyrrolo[1,2-b]pyrazol-3-yl)-7-(1H-pyrrol-3-yl)quinoline Ditrifluoroacetic Acid] and `Cc1ccc(-c2ccc3c(-c4c(-c5ccccn5)nn5c4CCC5)ccnc3c2)cc1` [Example 77, 4-(2-pyridin-2-yl-5,6-dihydro-4H-pyrrolo[1,2-b]pyrazol-3-yl)-7-p-tolylquinoline Trifluoroacetic Acid] cannot be ordered by IC50: at most 100 nM for the first, at most 100 nM for the second.

`c1ccc(-c2nn3c(c2-c2ccnc4cc(C5CCCCC5)ccc24)CCC3)nc1` [Example 72, 7-Cyclohexyl-4-(2-pyridin-2-yl-5,6-dihydro-4H-pyrrolo[1,2-b]pyrazol-3-yl)quinoline Trifluoroacetic Acid] and `Fc1ccc(-c2ccc3c(-c4c(-c5ccccn5)nn5c4CCC5)ccnc3c2)nc1` [Example 83, 7-(5-Fluoropyridin-2-yl)-4-(2-Pyridin-2-yl-5,6-dihydro-4H-pyrrolo[1,2-b]pyrazol-3-yl)quinoline Ditrifluoroacetic Acid] cannot be ordered by IC50: at most 10000 nM for the first, at most 10000 nM for the second.

`OCCOc1ccc(-c2ccc3c(-c4c(-c5ccccn5)nn5c4CCC5)ccnc3c2)cc1` [Example 73, 2-{4-[4-(2-Pyridin-2-yl-5,6-dihydro-4H-pyrrolo[1,2-b]pyrazol-3-yl)quinolin-yl]phenoxy}ethanol Trifluoroacetic Acid] and `NCCc1ccc(-c2ccc3c(-c4c(-c5ccccn5)nn5c4CCC5)ccnc3c2)cc1` [Example 76, 2-{4-[4-(2-pyridin-2-yl-5,6-dihydro-4H-pyrrolo[1,2-b]pyrazol-3-yl)quinolin-7-yl]phenyl}ethylamine Ditrifluoroacetic Acid] cannot be ordered by IC50: at most 100 nM for the first, at most 100 nM for the second.

`O=C(O)Cc1ccc(-c2ccc3c(-c4c(-c5ccccn5)nn5c4CCC5)ccnc3c2)cc1` [Example 74, {4-[4-(2-pyridin-2-yl-5,6-dihydro-4H-pyrrolo[1,2-b]pyrazol-3-yl)quinolin-7-yl]phenyl}acetic Acid Trifluoroacetic Acid] and `NC(=O)CCCc1ccc(-c2ccc3c(-c4c(-c5ccccn5)nn5c4CCC5)ccnc3c2)cc1` [Example 86, 4-{4-[4-(2-Pyridin-2-yl-5,6-dihydro-4H-pyrrolo[1,2-b]pyrazol-3-yl)quinolin-7-yl]phenyl}butyramide Trifluoroacetic Acid] cannot be ordered by IC50: at most 100 nM for the first, at most 100 nM for the second.

`CS(=O)(=O)c1ccc(-c2ccc3c(-c4c(-c5ccccn5)nn5c4CCC5)ccnc3c2)cc1` [Example 75, 7-(4-Methanesulfonylphenyl)-4-(2-pyridin-2-yl-5,6-dihydro-4H-pyrrolo[1,2-b]pyrazol-3-yl)quinoline Trifluoroacetic Acid] and `O=S1(=O)Cc2ccc(-c3ccc4c(-c5c(-c6ccccn6)nn6c5CCC6)ccnc4c3)cc2C1` [Example 81] cannot be ordered by IC50: at most 100 nM for the first, at most 100 nM for the second.

`O=C(O)c1cc(C(=O)O)cc(-c2ccc3c(-c4c(-c5ccccn5)nn5c4CCC5)ccnc3c2)c1` [Example 79, 5-[4-(2-Pyridin-2-yl-5,6-dihydro-4H-pyrrolo[1,2-b]pyrazol-3-yl)quinolin-7-yl]isophthalic Acid Trifluoroacetic Acid] and `COC(=O)c1cc(C(=O)OC)cc(-c2ccc3c(-c4c(-c5ccccn5)nn5c4CCC5)ccnc3c2)c1` [Example 80, 5-[4-(2-Pyridin-2-yl-5,6-dihydro-4H-pyrrolo[1,2-b]pyrazol-3-yl)quinolin-7-yl]isophthalic Acid Dimethyl Ester Trifluoroacetic Acid] cannot be ordered by IC50: at most 10000 nM for the first, at most 10000 nM for the second.

`O=C(O)c1cccc(-c2ccc3c(-c4c(-c5ccccn5)nn5c4CCC5)ccnc3c2)n1` [Example 82, 6-[4-(2-Pyridin-2-yl-5,6-dihydro-4H-pyrrolo[1,2-b]pyrazol-3-yl)quinolin-7-yl]pyridine-2-carboxylic Acid Tris-trifluoroacetic Acid] and `COc1ccc(-c2ccc3c(-c4c(-c5ccccn5)nn5c4CCC5)ccnc3c2)nn1.O=C(O)C(F)F` [Example 84, 7-(6-Methoxypyridazin-3-yl)-4-(2-Pyridin-2-yl-5,6-dihydro-4H-pyrrolo[1,2-b]pyrazol-3-yl)quinoline Difluoroacetic Acid] cannot be ordered by IC50: at most 100 nM for the first, at most 100 nM for the second.

Work on `O=C(O)C(F)F.c1ccc(-c2nn3c(c2-c2ccnc4cc(-c5ncccn5)ccc24)CCC3)nc1` [Example 85, 4-(2-Pyridin-2-yl-5,6-dihydro-4H-pyrrolo[1,2-b]pyrazol-3-yl)-7-pyrimidin-2-yl-quinoline Difluoroacetic Acid] yielded an IC50 of at most 1000 nM.
